From article PMC9894920, “Development of an improved and specific inhibitor of NADPH oxidase 2 to treat traumatic brain injury” (Redox Biology, 2023)
≈ marks a conversion by molar mass, not a printed value. Where two headings read alike, the source gives them in different places.

Experiments:
[1] = Rat liver microsomal stability; assay type: in vitro ADME; details: for half-life: SD, rat, liver microsomes, read-out: Rat_SD/Microsomes t1/2 (m)
Method: (§1) The rat liver microsomal stability, parallel artificial membrane permeability assay (PAMPA), and aqueous kinetic solubility assay in phosphate-buffered saline (PBS) buffer were performed as described in the indicated references.

[2] = Aqueous kinetic solubility in PBS buffer; assay type: physicochemical
Method: as §1

[3] = Parallel artificial membrane permeability assay (PAMPA); assay type: in vitro ADME; details: for Papp: pH 7.4, PAMPA, pH7.4, read-out: Permeability(pH7.4) (PAMPA_Pion_Lipid 1e-6 cm/s)
Method: as §1

Bovine Xanthine Oxidase = target: T1, Bovine Xanthine Oxidase (Bos taurus, UniProt P80457); assay: Xanthine oxidase / hypoxanthine luminol chemiluminescence assay; assay type: biochemical; details: xanthine oxidase with hypoxanthine; mean ± SD, n in cell; read-out: X/XO IC50
T1 construct: purchased Sigma
T1 sequence (P80457 whole entry): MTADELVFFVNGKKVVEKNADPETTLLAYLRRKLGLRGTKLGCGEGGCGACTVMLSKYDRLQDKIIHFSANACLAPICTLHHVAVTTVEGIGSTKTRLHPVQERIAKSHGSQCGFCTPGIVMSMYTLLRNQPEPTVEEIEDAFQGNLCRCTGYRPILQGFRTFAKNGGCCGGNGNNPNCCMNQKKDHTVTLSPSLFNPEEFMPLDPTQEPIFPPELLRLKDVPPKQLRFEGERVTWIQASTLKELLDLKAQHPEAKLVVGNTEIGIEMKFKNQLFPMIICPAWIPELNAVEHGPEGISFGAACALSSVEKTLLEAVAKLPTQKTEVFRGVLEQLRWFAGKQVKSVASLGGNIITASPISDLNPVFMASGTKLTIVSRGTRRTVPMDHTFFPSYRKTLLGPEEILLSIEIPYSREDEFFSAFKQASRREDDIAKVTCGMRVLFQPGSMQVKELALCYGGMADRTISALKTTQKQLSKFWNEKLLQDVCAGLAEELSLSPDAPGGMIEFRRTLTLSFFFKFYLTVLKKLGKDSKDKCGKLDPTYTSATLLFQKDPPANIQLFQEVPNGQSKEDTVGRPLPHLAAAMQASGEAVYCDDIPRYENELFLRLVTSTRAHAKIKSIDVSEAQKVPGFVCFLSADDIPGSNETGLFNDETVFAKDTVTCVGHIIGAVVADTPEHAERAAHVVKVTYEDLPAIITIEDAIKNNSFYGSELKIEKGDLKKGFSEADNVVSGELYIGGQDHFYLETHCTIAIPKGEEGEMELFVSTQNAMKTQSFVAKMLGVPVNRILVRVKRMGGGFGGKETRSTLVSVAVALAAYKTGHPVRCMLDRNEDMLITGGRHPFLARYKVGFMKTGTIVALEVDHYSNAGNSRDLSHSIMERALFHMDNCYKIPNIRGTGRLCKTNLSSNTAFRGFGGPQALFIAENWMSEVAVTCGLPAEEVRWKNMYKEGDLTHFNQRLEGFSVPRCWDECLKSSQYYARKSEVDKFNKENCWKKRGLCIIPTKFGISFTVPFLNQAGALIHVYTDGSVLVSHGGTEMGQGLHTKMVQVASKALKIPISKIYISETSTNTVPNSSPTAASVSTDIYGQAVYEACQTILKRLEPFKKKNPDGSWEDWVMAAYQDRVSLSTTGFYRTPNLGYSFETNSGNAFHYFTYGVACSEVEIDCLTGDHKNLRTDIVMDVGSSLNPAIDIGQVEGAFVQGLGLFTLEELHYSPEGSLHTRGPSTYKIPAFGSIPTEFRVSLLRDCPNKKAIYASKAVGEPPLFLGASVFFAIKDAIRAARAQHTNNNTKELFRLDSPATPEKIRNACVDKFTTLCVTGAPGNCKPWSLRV
Method: Bovine Xanthine Oxidase (Sigma) was dialyzed in PBS to remove ammonium sulfate and stored at 4 °C. Hypoxanthine was prepared by heating in DMSO. Reactions were prepared by diluting xanthine oxidase in HBSS (final concentration 1.25 mU/mL) that contained 50 μM luminol and were preincubated 5 min with control or inhibitor before the addition of hypoxanthine at a final concentration of 0.5 mM. Luminescence was measured at 24 °C as described above.

NOX2 [4] = target: T2, NOX2 (Mus musculus, UniProt Q61093); assay: NOX2 activity in primary mouse neutrophils enriched from bone marrow; assay type: cell-based; details: SD, n = 8 mice
T2 construct: relative potencies in primary mouse neutrophils enriched from bone marrow; endogenous in cells; host or cells: primary mouse bone-marrow granulocytes
T2 sequence (Q61093 2-570 limits assumed): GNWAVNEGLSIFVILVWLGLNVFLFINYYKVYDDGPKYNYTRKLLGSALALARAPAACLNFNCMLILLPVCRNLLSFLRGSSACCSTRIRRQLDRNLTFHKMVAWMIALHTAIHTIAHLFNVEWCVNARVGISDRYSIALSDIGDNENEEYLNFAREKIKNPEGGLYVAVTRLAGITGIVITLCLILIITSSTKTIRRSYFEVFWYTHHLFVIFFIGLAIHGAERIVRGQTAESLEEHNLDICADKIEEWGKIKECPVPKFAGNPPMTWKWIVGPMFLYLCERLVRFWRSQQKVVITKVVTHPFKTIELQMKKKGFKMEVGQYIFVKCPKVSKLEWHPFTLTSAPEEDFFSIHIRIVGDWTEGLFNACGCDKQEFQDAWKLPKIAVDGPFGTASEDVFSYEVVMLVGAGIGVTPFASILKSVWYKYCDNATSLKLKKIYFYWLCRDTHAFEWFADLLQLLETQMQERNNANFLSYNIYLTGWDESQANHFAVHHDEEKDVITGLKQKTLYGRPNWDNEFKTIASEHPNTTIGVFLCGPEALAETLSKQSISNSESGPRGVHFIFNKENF
T2 sequence (Q61462 2-192 partner limits assumed): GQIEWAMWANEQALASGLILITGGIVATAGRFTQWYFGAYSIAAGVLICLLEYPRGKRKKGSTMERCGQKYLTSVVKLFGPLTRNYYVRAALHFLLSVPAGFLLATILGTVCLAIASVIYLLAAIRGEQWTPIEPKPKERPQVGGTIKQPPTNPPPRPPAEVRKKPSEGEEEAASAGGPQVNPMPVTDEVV
Method: (§2) Human blood was obtained after informed consent by the Department of Transfusion Medicine (NIH Clinical Center) and provided as de-identified specimens. Human granulocytes were isolated using Percoll density fractionation as described and NOX2 activity was assessed in white polypropylene flat bottom 96 well plates following 15 min of preincubation at 37 °C with compounds or vehicle controls using 50 μM luminol as a chemiluminescence enhancer in an assay volume of 100 μl RPMI1640 with 1.1 × 10^5 cells/well in Varioskan Lux luminometer for 30 cycles of 1 s per well (approximately 1 h).
Mouse granulocytes were isolated from bone marrow essentially as described except bones were not sterilized in ethanol and marrow was not flushed through a 100 μm strainer. Furthermore, RPMI1640 was supplemented with 10% FBS, 2 mM EDTA, and 25 mM HEPES buffer and penicillin/streptomycin was omitted. Polymorphonuclear leukocytes (PMN) concentration and purity (>90% granulocytes) were assessed microscopically using 3% acetic acid and a hemacytometer. NOX2 activity was assessed as described above with human granulocytes.

NOX1-NOX5 = assay: Expi293 whole cell assays, comparison across panel of NOX family members; assay type: cell-based, human
Method: Given concerns about previous assays for specific NOX family members we here report the first use of the Expi293 Expression System (Thermo Scientific) to overexpress NOX1, 2, 3, 4, and 5 in excess of any endogenous NOX proteins present in these cells. Transfections were performed following the manufacturer's instructions using the plasmids for each NOX as described in Supplemental Table 2 except that the enhancer solution provided with the Expi293 system was not used because it promoted enzyme activation.
After the times indicated in Supplemental Table 2, cells were washed and 50,000 added per well of a white 96-well plate (Greiner) along with 50 μM Luminol and 2.5 U horseradish peroxidase/mL in a volume of 90 μl for NOX1, NOX2, and NOX5. Inhibitors or vehicle controls were added and cells were incubated for 20 min at 37 °C prior to activation with the indicated stimuli. For NOX3 and NOX4 (constitutively active), cells were incubated with inhibitor or vehicle control prior to the addition of luminol and HRP. Chemiluminescence was measured every 2 min for 1 s per well at 37 °C in a Varioscan Multimode reader. AUC data were analyzed using GraphPad Prism using non-linear regression analysis after expressing relative to control alone (maximum ROS production).

NOX2 [5] = details: read-out: IC50 for NOX2, originally reported; cited from earlier work
xanthine oxidase = details: cited from earlier work
NOX2 [6] = target: T3, NOX2 (Homo sapiens, UniProt P04839); assay: NOX2 activity in primary human granulocytes (PMN), luminol chemiluminescence; assay type: cell-based; parameters: When tested against NOX2 in primary human neutrophils; endogenous in cells; host or cells: primary human granulocytes (PMN) from donor blood; details: mean ± SD, n in cell; read-out: NOX-2 IC50 from PMN
T3 sequence (P04839 2-570 limits assumed): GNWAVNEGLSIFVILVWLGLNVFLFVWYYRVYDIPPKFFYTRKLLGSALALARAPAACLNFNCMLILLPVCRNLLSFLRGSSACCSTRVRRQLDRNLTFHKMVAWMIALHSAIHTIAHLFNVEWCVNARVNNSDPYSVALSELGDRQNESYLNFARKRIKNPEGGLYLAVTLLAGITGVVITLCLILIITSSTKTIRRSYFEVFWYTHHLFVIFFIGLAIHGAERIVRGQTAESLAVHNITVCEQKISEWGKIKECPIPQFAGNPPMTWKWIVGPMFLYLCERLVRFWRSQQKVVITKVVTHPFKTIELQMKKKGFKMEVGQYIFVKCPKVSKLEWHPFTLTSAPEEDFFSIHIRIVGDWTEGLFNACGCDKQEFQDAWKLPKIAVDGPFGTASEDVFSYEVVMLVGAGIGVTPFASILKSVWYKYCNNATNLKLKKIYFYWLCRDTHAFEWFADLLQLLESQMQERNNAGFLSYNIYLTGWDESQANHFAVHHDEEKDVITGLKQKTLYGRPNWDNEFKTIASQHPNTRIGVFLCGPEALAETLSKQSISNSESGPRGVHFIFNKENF
T3 sequence (P13498 2-195 partner limits assumed): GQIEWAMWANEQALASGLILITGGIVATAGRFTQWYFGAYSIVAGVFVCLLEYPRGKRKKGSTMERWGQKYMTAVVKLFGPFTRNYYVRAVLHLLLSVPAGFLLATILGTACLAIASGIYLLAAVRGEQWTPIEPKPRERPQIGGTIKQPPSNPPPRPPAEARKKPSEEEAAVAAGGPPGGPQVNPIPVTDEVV
Method: as §2

[7] = aqueous buffer, kinetic from dmso stock, read-out: Solubility

**Q.** With CC(C)n1cc(-c2ccc3c(c2)N(C)CC3)c2c(NS(=O)(=O)c3ccn(C)n3)ccnc21 [GSK2795039, reference compound] as the compound, how does the “Rat_SD/Microsomes t1/2 (m)” value [1] read?
**A.** 1.02 m

**Q.** And the “solubility” value [2]?
**A.** 36.7 µg/mL (≈ 81.5 µM)

**Q.** And the “Permeability(pH7.4) (PAMPA_Pion_Lipid 1e-6 cm/s)” value [3]?
**A.** 1034.17 1e-6 cm/s

**Q.** What about the IC50 (Bovine Xanthine Oxidase) of the same compound?
**A.** 603 ± 59 nM

**Q.** What about the IC50 (NOX2 [4]) of the same compound?
**A.** 2170 ± 1110 nM

**Q.** And the “differences in activity across the panel of NOX family members” value (NOX1-NOX5)?
**A.** unable to demonstrate significant differences in activity

**Q.** Which results are given for CNC1CCc2ccc(-c3cn(C4CC4)c4nccc(N[S+](=O)([O-])c5ccn(C)n5)c34)cc21 (centres unmarked) [NCGC00650057, CNC1CCC2=C1C=C(C=C2)C3=CN(C4CC4)C5=NC=CC(N[S+]([O-])(=O)C6=NN(C)C=C6)=C35]?
**A.** half-life [1]: 17.9 min; solubility [2, 7]: > 68 µg/mL; Papp [3]: 4 ×10⁻⁶ cm/s; IC50 (Bovine Xanthine Oxidase): 2290 ± 3230 nM; IC50 (NOX2 [6]): 1610 nM

**Q.** What does the source list for CCn1cc(-c2ccc3c(c2)N(C2CC2)CC3)c2c(N[S+](=O)([O-])c3ccn(C)n3)ccnc21 [NCGC00650067, CCN1C=C(C2=C(N[S+]([O-])(=O)C3=NN(C)C=C3)C=CN=C12)C4=CC5=C(CCN5C6CC6)C=C4]?
**A.** half-life [1]: 1 min; solubility [2, 7]: 13.9 µg/mL (≈ 30 µM); Papp [3]: 819 ×10⁻⁶ cm/s; IC50 (Bovine Xanthine Oxidase): 7610 ± 10200 nM; IC50 (NOX2 [6]): 2400 ± 2260 nM

**Q.** Which half-life [1] does the source give for O=[S+]([O-])(Nc1ccnc2c1c(-c1ccc3c(c1)N(C1CC1)CC31CC1)cn2C1CC1)c1ccn(C2CC2)n1 [NCGC00650101, [O-][S+](=O)(NC1=C2C(=CN(C3CC3)C2=NC=C1)C4=CC5=C(C=C4)C6(CC6)CN5C7CC7)C8=NN(C=C8)C9CC9] here?
**A.** 1.2 min

**Q.** What about the solubility [2, 7] of the same compound?
**A.** 36.8 µg/mL (≈ 69.9 µM)

**Q.** What about the Papp [3] of the same compound?
**A.** 81.8 ×10⁻⁶ cm/s

**Q.** What about the IC50 (Bovine Xanthine Oxidase) of the same compound?
**A.** 1220 ± 320 nM

**Q.** What about the IC50 (NOX2 [6]) of the same compound?
**A.** 11600 ± 8720 nM

**Q.** Which results are given for Cn1ccc([S+](=O)([O-])Nc2ccnc3c2c(-c2ccc4c(c2)N(C2CC2)CC4)cn3CC2CCOCC2)n1 [NCGC00650068, CN1C=CC(=N1)[S+]([O-])(=O)NC2=C3C(=CN(CC4CCOCC4)C3=NC=C2)C5=CC6=C(CCN6C7CC7)C=C5]?
**A.** half-life [1]: 0.9 min; solubility [2, 7]: 13.1 µg/mL (≈ 24.6 µM); Papp [3]: 907 ×10⁻⁶ cm/s; IC50 (Bovine Xanthine Oxidase): 2300 nM; IC50 (NOX2 [6]): 11800 nM

**Q.** Which results are given for Cn1ccc([S+](=O)([O-])Nc2ccnc3c2c(-c2ccc4c(c2)C(N)CC4)cn3C2CC2)n1 (centres unmarked) [NCGC00650025, CN1C=CC(=N1)[S+]([O-])(=O)NC2=C3C(=CN(C4CC4)C3=NC=C2)C5=CC6=C(CCC6N)C=C5]?
**A.** half-life [1]: 14.5 min; solubility [2, 7]: 24 µg/mL (≈ 53.5 µM); Papp [3]: 13 ×10⁻⁶ cm/s; IC50 (Bovine Xanthine Oxidase): > 20000 nM; IC50 (NOX2 [6]): 447 nM

**Q.** Which half-life [1] does the source give for CN1CCc2ccc(-c3cn(CC(F)(F)F)c4nccc(N[S+](=O)([O-])c5ccn(C)n5)c34)cc21 [NCGC00600903, CN1C=CC(=N1)[S+]([O-])(=O)NC2=C3C(=CN(CC(F)(F)F)C3=NC=C2)C4=CC5=C(CCN5C)C=C4] here?
**A.** 3.3 min

**Q.** What about the solubility [2, 7] of the same compound?
**A.** 12.2 µg/mL (≈ 24.9 µM)

**Q.** And the Papp [3]?
**A.** 53.6 ×10⁻⁶ cm/s

**Q.** And the IC50 (Bovine Xanthine Oxidase)?
**A.** 56 ± 79 nM

**Q.** What about the IC50 (NOX2 [6]) of the same compound?
**A.** 1680 ± 2070 nM
